Columns and labels:
[1] = RP-HPLC chromatographic hydrophobicity index; assay type: physicochemical; conditions: C18, 2:1 methanol:20 mM aqueous ammonium formate pH 8; τ = (Tret − T0)/T0
Experimental: RP-HPLC method, a fast and efficient alternative for standard logD determination in octan-1-ol/water system, was used to assess the hydrophobicity of all synthesized compounds. This method has been successfully used in our laboratory for halogenated benzotriazole derivatives, including the evaluation of the effect of hydrophobicity on their binding to the catalytic subunit of protein kinase CK2 [24, 43].
Chromatographic hydrophobicity index (log(τ)) was determined with the reverse phase HPLC (RP-HPLC). Column: Nova-pak® C18 4 μm, 4.6 × 250 mm. Eluent: 2:1 methanol: 20 mM aqueous ammonium formate (pH = 8) (v/v). Flow: 0.7 mL/min. Detector wavelength: 280 nm. The individual retention times (Tret) were converted to a hydrophobicity scale according to the formula τ = (Tret − T0)/T0. where the retention time of unretained solvent (T0) was estimated to 300 s.

[2] = test system: colorectal carcinoma HCT116; assay: MTT cell viability assay, HCT116; assay type: cell-based; conditions: Homo sapiens, HCT-116, 72 h, read-out: IC50 HTC116
Source text: (§1) The following human cell lines were used in this study: (i) epidermoid carcinoma A-431 (ATCC® CRL-1555), (ii) colorectal carcinoma HCT116 (ATCC® CCL-247), (iii) colorectal carcinoma HCT116p53^−/−, and (iv) normal fibroblasts BJ (ATCC® CRL-2522). The HCT116p53^−/− cell line was a kind gift from professor Bert Vogelstein (John Hopkin’s University, Baltimore, MD, USA). The remaining cell lines were purchased from ATCC (Manassas, VA, USA) or Sigma Aldrich by Merck (Darmstadt, Germany).
(§2) Cells were cultured in Dulbecco’s modified Eagle’s or Roswell Park Memorial Institute (RPMI)-1640 medium supplemented with 10% or 15% fetal bovine serum (Gibco by Thermo Fisher Scientific, Waltham, MA, USA) under standard culture conditions (37 °C, 5% CO2) in a humidified incubator with atmospheric oxygen.
(§3) The viability of cells was assayed by measuring the conversion of MTT (3-(4,5-dimethylthiazol-2-yl)-2,5-diphenyltetrazolium bromide) to the formazan (the rate of this reaction is proportional to the number of surviving cells). Cells were seeded in a 96-well plate at a density of 1500–2500 cells per well, 24 h before treatment. Treatment with tested compounds and cisplatin (0.25–160 µM) was performed for 72 h. MTT stock solution (Sigma-Aldrich) was added at the final concentration 0.5 mg/mL. After 2 h of incubation at 37 °C, water-insoluble formazan was dissolved in a lysis buffer containing 20% SDS, 50% DMF, 2.5% hydrochloric acid, and 2.5% acetic acid. Optical densities were measured at 570 nm using a scanning multi-well spectrophotometer ([…] Detection Platform; Beckman Coulter, Brea, CA, USA).

hCK2α [3] = molecular target: T1, hCK2α (Homo sapiens, UniProt P68400); assay: nanoDSF thermal shift assay (low-volume differential scanning fluorimetry); assay type: binding; conditions: 10-fold excess of ligand (1:10 protein–ligand), 2.5 μM protein, relative to apo hCK2α, 2% DMSO, pH 8; read-out: ΔTm
T1 construct: made in house
Experimental: Binding affinities of the newly synthesized compounds towards hCK2α were assessed with the low-volume differential scanning fluorimetry (nanoDSF). The shift of the temperature of thermal denaturation in the presence of 10-fold excess of a particular ligand relative to the apo form of hCK2α (ΔTm) can be used as a semi-qualitative measure of the binding affinity or inhibitory activity.
hCK2α was expressed and purified according to the method described previously. Thermal stability of 1:10 protein–ligand complexes was monitored on Prometheus (Nanotemper Technologies, München, Germany) using PR-C002 Prometheus NT.48 Standard Capillaries using temperature ramp of 20 to 80 °C with 1 °C/min heating rate. Temperature-induced variation in ratio fluorescence intensity at 330 and 350 nm was globally analyzed using the procedure described before. All experiments were performed in 25 mM Tris–HCl (pH 8, 0.5 M NaCl) with 2% (v/v) DMSO. Protein was kept in constant 2.5 μM concentration.

hCK2α [4] = molecular target: T1, hCK2α; assay: Inhibitory activity against human CK2α (ADP-Glo kinase assay); assay type: biochemical; conditions: inhibitor 1 nM–1 mM, triplicate
Experimental: The inhibitory effect of 8 selected compounds was monitored based on the luminescence measured with the SpectraMax iD3 Multi-Mode Microplate Reader (Molecular Devices, San Jose, CA, USA), using the previously described method with the aid of ADP-Glo kinase assay (Promega, Walldorf, Germany). Inhibitor concentration varied in the range of 1 nM–1 mM (see Supplementary Figure S38). Each experiment was repeated in triplicate and IC50 values were further estimated globally using the sigmoidal dose-response equation implemented in Origin 9.4 package (www.originlab.com, upgraded 20.07.27).

[5] = test system: epidermoid carcinoma A-431; assay: MTT cell viability assay, A-431; assay type: cell-based; conditions: Homo sapiens, 72 h
Source text: as §1, §2, §3

[6] = test system: colorectal carcinoma HCT116p53−/−; assay: MTT cell viability assay, HCT116p53−/−; assay type: cell-based; conditions: Homo sapiens, 72 h
Source text: as §1, §2, §3

[7] = test system: A-431, HCT116, HCT116p53−/−, BJ; assay: MTT cell viability, reference cell lines as a whole; assay type: cell-based; conditions: Homo sapiens; viability tests, cell line not specified
Source text: as §1, §2
as §3, with “MTT stock solution (Sigma-Aldrich) was added at the final concentration 0.5 mg/mL. After 2 h of incubation at 37 °C, water-insoluble formazan was dissolved in a lysis buffer containing 20% SDS, 50% DMF, 2.5% hydrochloric acid, and 2.5% acetic acid.” left out

normal fibroblasts BJ = assay: MTT cell viability assay, BJ; assay type: cell-based, human; conditions: Homo sapiens, Fibroblast; MTT, 72 h
Source text: as §1, §2, §3

[8] = test system: PC-3 (prostate carcinoma); design: method as in PMID 12660022; conditions: cited from earlier work
MCF-7 (breast carcinoma) = test system: MCF-7 (breast carcinoma); design: method as in PMID 12660022; conditions: cited from earlier work
[9] = test system: phytohemagglutinin-stimulated normal human lymphocytes; design: method as in PMID 12660022; conditions: cited from earlier work
CK2 = conditions: read-out: IC50 against CK2 / inhibitory activity; cited from earlier work

T1 sequence (P68400 whole entry): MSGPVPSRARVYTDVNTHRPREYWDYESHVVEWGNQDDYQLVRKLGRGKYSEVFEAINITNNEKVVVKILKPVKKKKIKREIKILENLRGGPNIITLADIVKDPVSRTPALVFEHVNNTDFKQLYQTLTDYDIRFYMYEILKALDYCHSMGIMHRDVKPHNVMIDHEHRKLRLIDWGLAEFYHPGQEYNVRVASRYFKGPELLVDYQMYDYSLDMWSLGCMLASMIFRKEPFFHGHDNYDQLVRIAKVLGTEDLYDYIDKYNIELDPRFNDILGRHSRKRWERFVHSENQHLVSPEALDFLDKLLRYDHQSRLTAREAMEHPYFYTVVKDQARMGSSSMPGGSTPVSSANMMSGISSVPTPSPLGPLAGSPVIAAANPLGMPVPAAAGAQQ

SMILES | log(τ) HPLC-derived hydrophobicity index [1] | IC50 [2] | ΔTm at 25 µM (hCK2α [3]) | IC50 (hCK2α [4]) | IC50 [5] | IC50 [6] | IC50 [7] | IC50 (normal fibroblasts BJ) | IC80 [8] | IC80 (MCF-7 (breast carcinoma)) | IC80 [9] | IC50 (CK2)
Oc1nc2cc(I)c(I)cc2nc1O [Compound 7e] | −0.117 | 41 ± 4 µM | 4.1 ± 0.1 °C | 2 ± 1 µM | 94 ± 14 µM | 70 ± 10 µM | ~100 µM | 128 ± 13 µM |  |  |  | 
FC(F)(F)c1nc2cc(Br)c(Br)cc2[nH]1 [Compound 3d, 5,6-dibromo-2-trifluoromethylo-1H-benzimidazole] | 0.310 | 10 ± 2 µM | 2.4 ± 0.1 °C | 15 ± 3 µM | 13 ± 2 µM | 12 ± 2 µM |  | 55 ± 6 µM | < 3 µM | < 3 µM | 8.7 µM | 28 µM

Source: article PMC8198750, “Synthesis of Novel Halogenated Heterocycles Based on o-Phenylenediamine and Their Interactions with the Catalytic Subunit of Protein Kinase CK2” (Molecules, 2021)
